Measurements taken from patent US8957062B2, “Substituted cyclopropyl compounds, compositions containing such compounds and methods of treatment” (Merck Sharp & Dohme Corp., priority 2011, dated 2015).
Like-named read-outs stand apart in the source and are kept apart here.

Biological target: T1, human GPR119 (Homo sapiens, UniProt Q8TDV5)
T1 sequence (Q8TDV5 1-308 limits assumed): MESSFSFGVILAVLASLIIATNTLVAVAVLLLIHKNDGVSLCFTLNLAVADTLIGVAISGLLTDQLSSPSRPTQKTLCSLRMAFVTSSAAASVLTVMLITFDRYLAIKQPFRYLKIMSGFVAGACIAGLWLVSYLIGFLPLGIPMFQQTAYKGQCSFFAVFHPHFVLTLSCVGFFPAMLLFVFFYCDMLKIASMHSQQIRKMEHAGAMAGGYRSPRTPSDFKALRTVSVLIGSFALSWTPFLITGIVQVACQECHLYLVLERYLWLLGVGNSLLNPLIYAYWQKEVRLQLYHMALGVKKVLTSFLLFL
Assay: Measurement of GPR119 signaling (cAMP assay) in cells stably transfected with human GPR119
Type: cell-based
Conditions: cAMP stimulation
Protocol: Measurement of GPR119 Signaling (Cyclic AMP (cAMP) Assay)
The adenylate cyclase assay was constructed following the LANCE™ cAMP Kit (Perkin Elmer, AD0264) instructions.
The reaction was stopped by incubating with the supplied detection buffer containing the europium chelate of the Eu-SA/Biotin-cAMP tracer for 3 hours. The assay was performed in duplicate in a 384 well plate for duplicate plates and fluorescence was measured at 665 nm. Basal activity was determined using a DMSO control and maximum response was defined as cAMP stimulation produced by an internal agonist control. Standard cAMP concentrations were assayed concurrently for conversion of fluorescence signal to cAMP level. The data was analyzed using 4-parameter curve fit in Microsoft Excel.
Measurement of GPR119 Signaling (cAMP Homogenous Time Resolved Fluorescence (HTRF) Assay)
Chinese hamster ovary (CHO) cell lines stably transfected with the permissive guanine nucleotide binding protein alpha 15 (Gα15) and murine GPR119 were maintained in DMEM media containing FBS, penicillin-streptomycin, puromycin, and G418 (geneticin). […] Agonist activation of the GPR119 receptor was measured in receptor transfected cells described above, treated with compounds of this invention, using a commercial homogenous time resolved fluorescence (HTRF) kit for measurement of cAMP (CisBio, Bedford, Mass.). The assay was performed in 96-well half-volume plates (murine) or 384-well plates (human) following the manufacturers instructions. Briefly, suspended cells were incubated with a dose titration of test compound at RT for 60 min, lysed, and incubated with HTRF reagents for an additional 60 min. The plate was read using an Envision multilabel reader (Perkin Elmer) adjusted to read time resolved fluorescence and the cAMP concentrations were extrapolated from a cAMP calibration curve. […] The concentration of test compound required to stimulate a half-maximal response (EC50), and efficacy as compared to an internal agonist control, was determined from a sigmoidal 4-parameter curve fit of the resulting plot of normalized activity versus compound concentration.

[1] = table column, human GPR119, read-out: GPR119 Human EC50
[2] = stated in the example text, human GPR119, read-out: GPR119 Human EC50

SMILES | EC50 [1] [nM] | other results
CS(=O)(=O)c1ccc(OCC[C@@H]2C[C@@H]2C2CCN(c3nnc(-c4ccccc4)o3)CC2)nc1 [Example 250] | 49 | 
CC1(OC(=O)N2CCC([C@H]3C[C@H]3CCOc3ccc(CC(=O)N4CC(F)(F)C4)c(F)c3)CC2)CC1 [Example 65] |  | EC50 (read-out: GPR119 HumC EC50): 0.49 nM
CC(C)(C)CC(=O)N1CCC([C@H]2C[C@H]2CCOc2ccc(S(C)(=O)=O)c(F)c2)CC1 [Example 95] | 5.4 | 
Cc1nc(C#N)cc(OCC[C@@H]2C[C@@H]2C2CCN(C(=O)OC3(C)CC3)CC2)n1 [Example 49] | 2 | 
CC(C)c1noc(N2CCC([C@H]3C[C@H]3CCOc3ccc(CC(=O)N4CCC(C)(O)C4)c(F)c3)CC2)n1 (stereo partly shown) [Example 174] | 11.4 | 
Cc1nc(CN(C)C(=O)Cc2ccc(OCC[C@@H]3C[C@@H]3C3CCN(c4nc(C(C)C)no4)CC3)cc2F)cs1 [Example 163] | 2.3 | 
CN(C)C(=O)Cc1ccc(OCC[C@@H]2C[C@@H]2C2CCN(C(=O)OC3(C)CC3)CC2)cc1F [Example 66] |  | EC50 (read-out: GPR119 HumC EC50): 2.4 nM
CC(C)c1noc(N2CCC([C@H]3C[C@H]3CCOc3ccc(CC(=O)N4CC(F)C4)cc3)CC2)n1 [Example 129] | 1.5 | 
CC(C)c1noc(N2CCC([C@H]3C[C@H]3CCOc3ccc(CC(=O)N4Cc5nnc(C(F)(F)F)n5C(C)C4)c(F)c3)CC2)n1 (stereo partly shown) [Example 182] | 8.7 | 
CC(C)c1noc(N2CCC([C@H]3C[C@H]3CCOc3ccc(CC(=O)N4CC(c5cccnc5)C4)c(F)c3)CC2)n1 [Example 190] | 3.6 | 
O=C(CC1CCCC1)N1CCC([C@H]2C[C@H]2CCOc2ccc(-n3cnnn3)cc2)CC1 [Example 82] | 16 | 
Cc1cc(-n2cnnn2)cnc1OCC[C@@H]1C[C@@H]1C1CCN(c2nc(C(C)O)no2)CC1 (stereo partly shown) [Example 229] | 5 | 
CC(C)c1noc(N2CCC([C@H]3C[C@H]3CCOc3ccc(CC(=O)NC4CC4(F)F)c(F)c3)CC2)n1 (stereo partly shown) [Example 152] | 6.3 | 
CC(C)(C)COC(=O)N1CCC([C@H]2C[C@H]2CCOc2ccc(-n3cnnn3)cc2)CC1 [Example 9] | 15 | 
CC(C)c1noc(N2CCC([C@H]3C[C@H]3CCOc3ccc(CC(=O)NC4CC4)c(F)c3)CC2)n1 [Example 150] | 2.1 | 
CC(C)OC(=O)N1CCC([C@H]2C[C@H]2CCOc2ccc(S(C)(=O)=O)c(F)c2)CC1 [Example 40] | 2.3 | 
CC(C)CC(=O)N1CCC([C@H]2C[C@H]2CCOc2ccc(-n3cnnn3)cc2)CC1 [Example 79] | 7.7 | 
O=C(Cc1ccc(OCC[C@@H]2C[C@@H]2C2CCN(C(=O)OCC3CC3)CC2)cc1F)N1CCC1 [Example 61, cyclopropylmethyl-4-((1R,2S)-2-{2-[4-(2-azetidin-1-yl-2-oxoethyl)-3-fluorophenoxy]ethyl}cyclopropyl)piperidine-1-carboxylate] |  | EC50 [2]: 2 nM
COC(C)c1noc(N2CCC([C@H]3C[C@H]3CCOc3ccc(S(C)(=O)=O)cn3)CC2)n1 (stereo partly shown) [Example 215] | 5.8 | 
CC(C)c1noc(N2CCC([C@H]3C[C@H]3CCOc3cc(F)c(CC(=O)N4CCC4)c(F)c3)CC2)n1 [Example 109] |  | EC50 (read-out: GPR119 HumC EC50): 0.24 nM
COCc1noc(N2CCC([C@H]3C[C@H]3CCOc3ccc(CC(=O)NC4CC4)c(F)c3)CC2)n1 [Example 198] | 13 | 
Cc1cc(CC(=O)N(C)C2CCS(=O)(=O)C2)cnc1OCC[C@@H]1C[C@@H]1C1CCN(c2nc(C(C)C)no2)CC1 (stereo partly shown) [Example 264] | 11 | 
CC(C)c1noc(N2CCC([C@H]3C[C@H]3CCOc3cc(F)c(C(=O)C4CC4)c(F)c3)CC2)n1 [Example 120] | 0.1 | 
CC(C)(C)NC(=O)N1CCC([C@H]2C[C@H]2CCOc2ccc(-n3cnnn3)cc2)CC1 [Example 76, N-(tert-butyl)-4-((1R,2S)-2-(2-(4-(1H-tetrazol-1-yl)phenoxy)ethyl)cyclopropyl)piperidine-1-carboxamide] |  | EC50 [2]: 14.7 nM
CCc1noc(N2CCC([C@H]3C[C@H]3CCOc3ccc(S(C)(=O)=O)cn3)CC2)n1 [Example 214] | 3.2 | 

SMILES | EC50 [1] [nM] | other results
CCC1(OC(=O)N2CCC([C@H]3C[C@H]3CCOc3ccc(S(C)(=O)=O)cn3)CC2)CC1 [Example 25] | 2.2 | 
COCCc1noc(N2CCC([C@H]3C[C@H]3CCOc3ccc(-n4cnnn4)cn3)CC2)n1 [Example 232] | 10.6 | 
CC(C)c1noc(N2CCC([C@H]3C[C@H]3CCOc3cc(F)c(C(=O)NC(C)(C)CO)c(F)c3)CC2)n1 [Example 122] | 10 | 
Cc1cc(OCC[C@@H]2C[C@@H]2C2CCN(C(=O)OC3(C)CC3)CC2)ccc1CC(=O)N1CCC1 [Example 60, 1-methylcyclopropyl-4-((1R,2S)-2-{2-[4-(2-azetidin-1-yl-2-oxoethyl)-3-methylphenoxy]ethyl}cyclopropyl)piperidine-1-carboxylate] |  | EC50 [2]: 5.4 nM
CC1(OC(=O)N2CCC([C@H]3C[C@H]3CCOc3ccc(CC(=O)N4CCC4)c(Cl)c3)CC2)CC1 [Example 69] |  | EC50 (read-out: GPR119 HumC EC50): 1.5 nM
CC(C)c1noc(N2CCC([C@H]3C[C@H]3CCOc3ccc(CC(=O)N(C)C4CCS(=O)(=O)C4)c(F)c3)CC2)n1 (stereo partly shown) [Example 162] | 2 | 
CC(C)c1noc(N2CCC([C@H]3C[C@H]3CCOc3ccc(CC(=O)N4CCC4)c(F)c3)CC2)n1 [Example 138] | 2 | 
Cc1cc(-n2cnnn2)cnc1OCC[C@@H]1C[C@@H]1C1CCN(c2nc(C(C)C)no2)CC1 [Example 225, 2-(2-{(1S,2R)-2-[1-(3-isopropyl-1,2,4-oxidiazol-5-yl)piperidin-4-yl]cyclopropyl}ethoxy]-3-methyl-5-(1H-tetrazol-1-yl)pyridine] |  | EC50 [2]: 0.1 nM
Cc1cc(OCC[C@@H]2C[C@@H]2C2CCN(c3nc(C(C)C)no3)CC2)ccc1CC(=O)N(C)C [Example 106] |  | EC50 (read-out: GPR119 HumC EC50): 3.4 nM
CC(C)c1noc(N2CCC([C@H]3C[C@H]3CCOc3ccc(CC(=O)N4Cc5sccc5C(O)C4)c(F)c3)CC2)n1 (stereo partly shown) [Example 189] | 4.7 | 
CC1(OC(=O)N2CCC([C@H]3C[C@H]3CCOc3ccc(S(C)(=O)=O)cn3)CC2)CC1 [Example 24] | 4.2 | 
CC(C)c1noc(N2CCC([C@H]3C[C@H]3CCOc3ccc(CC(=O)N(C)C4COC4)c(F)c3)CC2)n1 [Example 172] | 0.88 | 
CC(C)c1noc(N2CCC([C@H]3C[C@H]3CCOc3ccc(CC(=O)N4CCc5nccnc5C4)c(F)c3)CC2)n1 [Example 193] | 1.3 | 
CCS(=O)(=O)c1ccc(OCC[C@@H]2C[C@@H]2C2CCN(C(=O)OC3(C)CC3)CC2)nc1 [Example 27] | 0.9 | 
Cc1nc(C#N)cc(OCC[C@@H]2C[C@@H]2C2CCN(c3nc(C(C)C)no3)CC2)n1 [Example 118] | 0.4 | 
COC1CN(C(=O)Cc2ccc(OCC[C@@H]3C[C@@H]3C3CCN(c4nc(C(C)C)no4)CC3)cc2F)C1 [Example 141] | 0.93 | 
COCc1noc(N2CCC([C@H]3C[C@H]3CCOc3ccc(CC(=O)N4CC(F)C4)c(F)c3)CC2)n1 [Example 199] | 2 | 
CC(C)c1noc(N2CCC([C@H]3C[C@H]3CCOc3ccc(CC(=O)N(C)C4CCCC4)c(F)c3)CC2)n1 [Example 154] | 5 | 
CC(C)c1noc(N2CCC([C@H]3C[C@H]3CCOc3cc(F)c(CC(=O)N4CC(C)(O)C4)c(F)c3)CC2)n1 [Example 112] |  | EC50 (read-out: GPR119 HumC EC50): 2.4 nM
Cc1cc(-n2cnnn2)cnc1OCC[C@@H]1C[C@@H]1C1CCN(C(=O)OCc2ccccc2)CC1 [Example 31] | 2.8 | 
CS(=O)(=O)c1ccc(OCC[C@@H]2C[C@@H]2C2CCN(C(=O)OC3CCC3)CC2)nc1 [Example 18] | 0.4 | 
COCc1noc(N2CCC([C@H]3C[C@H]3CCOc3ccc(CC(=O)N4CCC[C@H]4C(F)(F)F)c(F)c3)CC2)n1 [Example 204] | 3.6 | 
O=C(CC1CC2C=CC1C2)N1CCC([C@H]2C[C@H]2CCOc2ccc(-n3cnnn3)cc2)CC1 (stereo partly shown) [Example 84] | 3.7 | 
COC1CN(C(=O)Cc2c(F)cc(OCC[C@@H]3C[C@@H]3C3CCN(c4nc(C(C)C)no4)CC3)cc2F)C1 [Example 113] |  | EC50 (read-out: GPR119 HumC EC50): 0.33 nM
